After the bases stand the sugars from the 5' end (letter, count) and the backbone: PS all phosphorothioate, else s phosphorothioate and o phosphodiester by linkage. Methylation of C is not given here. l = locked nucleic acid (LNA); d = 2'-deoxy (DNA)

This data set addresses SNHG14. As to conditions: ASO.
Setting [1] is: Mouse Primary Neuronal Cell, 0.005 µM.

Take TATAAGCTTACCTCAT (sugars l3 d10 l3, PS): the target mRNA inhibition (Human Neuronal Cell, 0.2 µM) was 50% and the target mRNA inhibition (Human Neuronal Cell, 1 µM) was found to be 66%.
Regarding “GATCATTCTCAACAATT (sugars l5 d6 l1 d1 l4, PS)”, under “Human Neuronal Cell, 7.5 µM”, the target mRNA inhibition came out at 0%.
Still for that read-out and setting: the figure for “TTTTTTCTTACTATCTTCAA (sugars ldldldldddddddldddll, PS)” is 57%.
For the sequence TAAAGATCCCATCACT (sugars l4 d10 l2, PS), the target mRNA inhibition reads like this: (Human Neuronal Cell, 0.2 µM) 31%; (Human Neuronal Cell, 1 µM) 50%.
With “ACTCTGCAATACACCAA (sugars l2 d11 l4, PS)”, the target mRNA inhibition (Human Neuronal Cell, 7.5 µM) was 59%.
As to “TACTCTGCAATACACCA (sugars ldddlddddddddldll, PS)”, the target mRNA inhibition (Human Neuronal Cell, 7.5 µM) stood at 68%.
For ATCTCATGACCACCTA (sugars l3 d10 l3, PS), the target mRNA inhibition runs as follows: (Human Neuronal Cell, 0.2 µM) 60%; (Human Neuronal Cell, 1 µM) 70%.
For CTATTCCAGTTTAAAT (sugars l4 d10 l2, PS) the same measures were 33% and 44%.
Consider “TTCTACTATACTTTCCTCT (sugars l1 d13 l1 d2 l2, PS)”, for which the target mRNA inhibition (Human Neuronal Cell, 7.5 µM) stood at 47%.
Same read-out and setting: to “TTTCCATTTATTTCCATTT (sugars lddldldddddddldddll, PS)” belongs 53%.
Same read-out and setting: the figure for “TCCATTTATTTCCATTTATT (sugars lldldldddddddddddlll, PS)” is 55%.
For the sequence “AACTCTCACTGTAACTT (sugars l3 d11 l3, PS)”, the target mRNA inhibition (Human Neuronal Cell, 0.2 µM) turned out to be 32% and the target mRNA inhibition (Human Neuronal Cell, 1 µM) is 42%.
For GCTCCATATTTAAATC (sugars l4 d10 l2, PS) the same measures were 7% and 20%.
In the case of “TTCTACTATACTTTCCTCT (sugars ldddddddddddldlddll, PS)”, the target mRNA inhibition (Human Neuronal Cell, 7.5 µM) worked out at 60%.
On the same count and under the same terms, to “TATACCTTTCTTTAACCCTT (sugars l2 d3 l1 d12 l2, PS)” belongs 43%.
As to “ACTTCCAGATTTCTACA (sugars l2 d11 l4, PS)”, the target mRNA inhibition stood at 54% (Human Neuronal Cell, 0.2 µM) and 63% (Human Neuronal Cell, 1 µM).
Turning to “ACTCTGCAATACACCAA (sugars l2 d1 l2 d9 l3, PS)”, the target mRNA inhibition (Human Neuronal Cell, 7.5 µM) was 55%.
Still for that read-out and setting: to “CCATTTATTTCCATTTATTT (sugars ldlddlddddddddlddlll, PS)” belongs 59%.
With ATCAATATCTTCTCAC (sugars l3 d10 l3, PS), the target mRNA inhibition is, setting by setting: (Human Neuronal Cell, 0.2 µM) 54%; (Human Neuronal Cell, 1 µM) 62%.
“TTGATTCAATTCCCTTA (sugars llddldddddddlddll, PS)”: the target mRNA inhibition (Human Neuronal Cell, 7.5 µM) came out at 67%.
Turning to “CTTGCATTTCTAATTAC (sugars l3 d11 l3, PS)”, the target mRNA inhibition is 38% (Human Neuronal Cell, 0.2 µM) and 35% (Human Neuronal Cell, 1 µM).
With “AAATTATTTATACACCATCA (sugars l4 d10 l1 d2 l3, PS)”, for the setting “Human Neuronal Cell, 7.5 µM”, the target mRNA inhibition was 66%.
On to ACATCTCATACTTGCT (sugars l2 d12 l2, PS), for which the target mRNA inhibition is, setting by setting: (Human Neuronal Cell, 0.2 µM) -13%; (Human Neuronal Cell, 1 µM) -7%; (Human Neuronal Cell, 5 µM) 4%; under setting [1], 93.9%.
For the sequence CTAAGCTCCATATTTA (sugars l4 d10 l2, PS), the target mRNA inhibition is, setting by setting: (Human Neuronal Cell, 0.2 µM) 21%; (Human Neuronal Cell, 1 µM) 42%.
As for “CTGTTTATACCCTTTCCA (sugars ldldldddddddddddll, PS)”, the target mRNA inhibition (Human Neuronal Cell, 7.5 µM) worked out at 56%.
With TCTGTATACACCATCC (sugars l4 d10 l2, PS), the target mRNA inhibition reads like this: (Human Neuronal Cell, 0.2 µM) 61%; (Human Neuronal Cell, 1 µM) 68%.
“GCACATTCTTTCTATACC (sugars l1 d3 l1 d11 l2, PS)”: the target mRNA inhibition (Human Neuronal Cell, 7.5 µM) was determined as 54%.
As to “GCAACATTATTAACCACCT (sugars ldlddlddddddlldddll, PS)”, for the setting “Human Neuronal Cell, 7.5 µM”, the target mRNA inhibition turned out to be 44%.
For “TACATTATTATTTAACC (sugars l4 d11 l2, PS)”, the target mRNA inhibition by setting is: (Human Neuronal Cell, 0.2 µM) 11%; (Human Neuronal Cell, 1 µM) 6%.
In the case of “GTTACATATTCTTTCAC (sugars l3 d11 l3, PS)”, the target mRNA inhibition is, setting by setting: (Human Neuronal Cell, 0.2 µM) 53%; (Human Neuronal Cell, 1 µM) 67%.
As to TACATCTCATACTTGC (sugars l2 d12 l2, PS), the target mRNA inhibition by setting is: (Human Neuronal Cell, 0.2 µM) 0%; (Human Neuronal Cell, 1 µM) -10%; (Human Neuronal Cell, 5 µM) 8%; under setting [1], 80.8%.
On to AGCTTTTAACCAGAGT (sugars l2 d10 l4, PS), for which the target mRNA inhibition (Human Neuronal Cell, 7.5 µM) came out at 81%.
As to “TCAAGAATTCTCTCCTT (sugars l2 d11 l4, PS)”, the target mRNA inhibition is, setting by setting: (Human Neuronal Cell, 0.2 µM) 47%; (Human Neuronal Cell, 1 µM) 51%.
On the same counts, the results for TCATCATATTGAACCA (sugars l3 d10 l3, PS) are 65% and 68%.
With “TTATAGCCATTCTATCT (sugars ldlddddddddlldlll, PS)”, the target mRNA inhibition (Human Neuronal Cell, 7.5 µM) was determined as 43%.
As to ATCTTCAAGAATTCTC (sugars l3 d10 l3, PS), the target mRNA inhibition came to 44% (Human Neuronal Cell, 0.2 µM) and 48% (Human Neuronal Cell, 1 µM).
Regarding “ATATTGATTCAATTCCC (sugars lddlldddddddlldll, PS)”, the target mRNA inhibition (Human Neuronal Cell, 7.5 µM) amounted to 63%.
On the same count and under the same terms, to “TATACCTTTCTTTAACCCTT (sugars lddddlddddddddddldll, PS)” belongs 61%; to “AAAATTATTTATACACCATC (sugars ldldllddddddddlldlll, PS)”, 59%; to “TTATAGCCATTCTATCT (sugars l2 d9 l1 d1 l4, PS)”, 49%.
Same read-out and setting: the figure for “TTGATTCAATTCCCTTA (sugars l2 d10 l1 d2 l2, PS)” is 69%; for “TGAAAATCTCAACTACCAT (sugars lldlldddddddlddldll, PS)” it is 46%.
Consider TATCAGTTATCCAATA (sugars l4 d10 l2, PS), for which the target mRNA inhibition runs as follows: (Human Neuronal Cell, 0.2 µM) 42%; (Human Neuronal Cell, 1 µM) 51%.
For “CATTTACATTATTATTTAAC (sugars l2 d14 l4, PS)” the same measures were 1% and -3%.
As to “TATTGATTCAATTCCCT (sugars lldddddddddldldll, PS)”, the target mRNA inhibition (Human Neuronal Cell, 7.5 µM) was 60%.
With “CCATTCTATCTGCCAAA (sugars l2 d11 l4, PS)”, the target mRNA inhibition reads like this: (Human Neuronal Cell, 0.2 µM) 54%; (Human Neuronal Cell, 1 µM) 69%.
On the same counts, the results for “ATCTTTGACATTCCATC (sugars l2 d11 l4, PS)” are 54% and 61%.
“TTATAGCCATTCTATCT (sugars lddldddddddldldll, PS)”: the target mRNA inhibition (Human Neuronal Cell, 7.5 µM) is 25%.
For ACATGTCCCTTTATAT (sugars l2 d12 l2, PS), the target mRNA inhibition was -9% (Human Neuronal Cell, 0.2 µM); -2% (Human Neuronal Cell, 1 µM); 15% (Human Neuronal Cell, 5 µM).
In the case of “TACCTACATCTCATACT (sugars l4 d11 l2, PS)”, the target mRNA inhibition is -53% (Human Neuronal Cell, 0.2 µM); -18% (Human Neuronal Cell, 1 µM); 11% (Human Neuronal Cell, 5 µM); 94.4% under setting [1].
Turning to ATTCTCAATTGCACTT (sugars l4 d10 l2, PS), the target mRNA inhibition runs as follows: (Human Neuronal Cell, 0.2 µM) 49%; (Human Neuronal Cell, 1 µM) 58%.
As to “CAACATTATTAACCACCTT (sugars l3 d11 l2 d1 l2, PS)”, where the note is “Human Neuronal Cell, 7.5 µM”, the target mRNA inhibition turned out to be 51%.
The same measure, in the same setting: the figure for “ATTGATTCAATTCCCTT (sugars ldddldddddddldlll, PS)” is 62%.
Consider “CCTAAAGATCCCATCAC (sugars l2 d12 l3, PS)”, for which the target mRNA inhibition by setting is: (Human Neuronal Cell, 0.2 µM) 34%; (Human Neuronal Cell, 1 µM) 51%.
With “AAAATCTCAACTACCATTTT (sugars lldldlddddddddlldlll, PS)”, the target mRNA inhibition (Human Neuronal Cell, 7.5 µM) came out at 24%.
On to AGACTAATCCTCTTAA (sugars l3 d10 l3, PS), for which the target mRNA inhibition is, setting by setting: (Human Neuronal Cell, 0.2 µM) 38%; (Human Neuronal Cell, 1 µM) 52%.
For TTAAATCCAGCATTCA (sugars l3 d10 l3, PS) the same measures were 54% and 66%.
For CAAGTTTCCTATATTC (sugars l4 d10 l2, PS) the same measures were 62% and 64%.
Consider “ATCATTCTCAACAATTAAA (sugars l1 d1 l4 d6 l7, PS)”, for which the target mRNA inhibition (Human Neuronal Cell, 7.5 µM) was 13%.
For the sequence “TTATAGCCATTCTATCT (sugars ldlddddddddldllll, PS)”, the target mRNA inhibition (Human Neuronal Cell, 7.5 µM) was 49%.
Consider TGTTTATACCCTTTCC (sugars l4 d10 l2, PS), for which the target mRNA inhibition came to 58% (Human Neuronal Cell, 0.2 µM) and 56% (Human Neuronal Cell, 1 µM).
Regarding “ATTTATTTCCATTTATTTTC (sugars ldlddlddddddddllldll, PS)”, the target mRNA inhibition (Human Neuronal Cell, 7.5 µM) was found to be 58%.
In the case of “TTATACCTTTCTTTAACC (sugars l4 d12 l2, PS)”, the target mRNA inhibition by setting is: (Human Neuronal Cell, 0.2 µM) 38%; (Human Neuronal Cell, 1 µM) 57%.
As to “TTATAGCCATTCTATCT (sugars l1 d1 l1 d9 l5, PS)”, under “Human Neuronal Cell, 7.5 µM”, the target mRNA inhibition was 55%.
Still for that read-out and setting: to “CAAAGATCATTCTCAAC (sugars l2 d2 l1 d6 l6, PS)” belongs 18%; to “AGCAACATTATTAACCAC (sugars llldlddddddddlddll, PS)”, 46%.
As for “TTTATACCTTTCTTTAACCC (sugars l1 d13 l1 d3 l2, PS)”, the target mRNA inhibition (Human Neuronal Cell, 7.5 µM) came to 57%.
On the same count and under the same terms, the figure for “CTTTTAACCAGAGTGGC (sugars l4 d11 l2, PS)” is 62%.
For the sequence “TTACCTACATCTCATACT (sugars l2 d14 l2, PS)”, the target mRNA inhibition stood at 5% (Human Neuronal Cell, 0.2 µM); 14% (Human Neuronal Cell, 1 µM); 17% (Human Neuronal Cell, 5 µM); 77.1% under setting [1].
CACTTAGAATATCCCT (sugars l2 d10 l4, PS): the target mRNA inhibition reads like this: (Human Neuronal Cell, 0.2 µM) 43%; (Human Neuronal Cell, 1 µM) 35%.
On the same counts, the results for TTCCATGCAAACTTTA (sugars l4 d10 l2, PS) are 49% and 64%.
On the same counts, the results for CAGATAACTCTAAACC (sugars l4 d10 l2, PS) are 22% and 16%.
For TTATTCTGACACACTT (sugars l3 d10 l3, PS) the same measures were 35% and 35%.

Source of the values: the OligoGym collection.
